This is an account of results in patent US10703765B2 (priority 2014, dated 2020).

Counter-ions that a name gives are not always drawn.

Sequence of human σ1 receptor (Q99720 whole entry): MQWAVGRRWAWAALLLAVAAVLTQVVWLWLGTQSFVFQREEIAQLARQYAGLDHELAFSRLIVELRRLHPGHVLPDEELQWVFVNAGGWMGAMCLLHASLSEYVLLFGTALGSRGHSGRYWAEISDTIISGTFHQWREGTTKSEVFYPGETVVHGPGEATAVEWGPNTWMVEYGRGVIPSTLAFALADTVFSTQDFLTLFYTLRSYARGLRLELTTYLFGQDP

The first assay has as its target human σ1 receptor (Homo sapiens, UniProt Q99720). As to the kind of experiment: biochemical. Format: binding.
Details: not given
The arrangement: μ and σ1 dual binding: key to the marks not given beside the values.
Take `C[C@H]1OC2(CCN(C[C@H](O)c3ccccc3)CC2)CN(c2ccccc2)C1=O` [Example 151a, (R)-9-((R)-2-hydroxy-2-phenylethyl)-2-methyl-4-phenyl-1-oxa-4,9-diazaspiro[5.5]undecan-3-one]: the Ki is under 500 nM. Take `CC1OC2(CCN(CCc3ccncc3)CC2)CN(c2ccccc2)C1=O.Cl` (centres unmarked) [Example 133, 2-methyl-4-phenyl-9-(2-(pyridin-4-yl)ethyl)-1-oxa-4,9-diazaspiro[5.5]undecan-3-one hydrochloride]: the “μ and σ1 dual binding” value is “++”. As to `C[C@H]1OC2(CCN(C[C@@H](O)c3ccccc3)CC2)CN(c2ccccc2)C1=O` [Example 151b, (R)-9-((S)-2-hydroxy-2-phenylethyl)-2-methyl-4-phenyl-1-oxa-4,9-diazaspiro[5.5]undecan-3-one], the Ki is under 500 nM. The compound `CC1OC2(CCN(CCc3cccc(C(F)(F)F)n3)CC2)CN(c2ccccc2F)C1=O` (centres unmarked) [Example 31, 4-(2-fluorophenyl)-2-methyl-9-(2-(6-(trifluoromethyl)pyridin-2-yl)ethyl)-1-oxa-4,9-diazaspiro[5.5]undecan-3-one hydrochloride] registered a Ki of under 500 nM.

`CC(C)C1OC2(CCN(CCc3cccnc3N)CC2)CN(c2ccccc2F)C1=O` (centres unmarked) [Example 238, 9-(2-(2-aminopyridin-3-yl)ethyl)-4-(2-fluorophenyl)-2-isopropyl-1-oxa-4,9-diazaspiro[5.5]undecan-3-one dihydrochloride] registered a Ki of under 100 nM.

`CC1OC2(CCN(CCc3ccccc3)CC2)CN(c2cscn2)C1=O` (centres unmarked) [Example 88, 2-methyl-9-phenethyl-4-(thiazol-4-yl)-1-oxa-4,9-diazaspiro[5.5]undecan-3-one hydrochloride] came in with a Ki of under 500 nM.

For the compound `COc1cccc(CCN2CCC3(CC2)CN(c2ccccc2)C(=O)C(C)O3)n1` (centres unmarked) [Example 102, 9-(2-(6-methoxypyridin-2-yl)ethyl)-2-methyl-4-phenyl-1-oxa-4,9-diazaspiro[5.5]undecan-3-one hydrochloride], the Ki was under 500 nM. Consider `Cl.O=C1COC2(CCN(Cc3ccccc3)CC2)CN1c1ccccc1` [Example 3, 9-benzyl-4-phenyl-1-oxa-4,9-diazaspiro[5.5]undecan-3-one hydrochloride], for which the “μ and σ1 dual binding” value is “++”.

Turning to `COC(=O)c1ccc(CCN2CCC3(CC2)CN(c2ccccc2)C(=O)C(C)O3)cc1.Cl` (centres unmarked) [Example 70, methyl 4-(2-(2-methyl-3-oxo-4-phenyl-1-oxa-4,9-diazaspiro[5.5]undecan-9-yl)ethyl)benzoate hydrochloride], the “μ and σ1 dual binding” value is “++”. On to `CC1OC2(CCN(CCc3ccccc3)CC2)CN(c2ccc(O)cc2)C1=O` (centres unmarked) [Example 293, 4-(4-hydroxyphenyl)-2-methyl-9-phenethyl-1-oxa-4,9-diazaspiro[5.5]undecan-3-one], for which the “μ and σ1 dual binding” value is recorded as “++”. For `CC1OC2(CCN(CCc3ncccc3Cl)CC2)CN(c2cnccc2C(F)(F)F)C1=O.Cl` (centres unmarked) [Example 44, 9-(2-(3-chloropyridin-2-yl)ethyl)-2-methyl-4-(4-(trifluoromethyl)pyridin-3-yl)-1-oxa-4,9-diazaspiro[5.5]undecan-3-one hydrochloride], the “μ and σ1 dual binding” value is “++”. As to `CC1OC2(CCN(CCc3ccccc3)CC2)CN(c2cccc(O)c2)C1=O` (centres unmarked) [Example 294, 4-(3-hydroxyphenyl)-2-methyl-9-phenethyl-1-oxa-4,9-diazaspiro[5.5]undecan-3-one], the “μ and σ1 dual binding” value is on record as “++”. In the case of `CC1OC2(CCN(CCc3nccs3)CC2)CN(c2ccccc2)C1=O` (centres unmarked) [Example 95, 2-methyl-4-phenyl-9-(2-(thiazol-2-yl)ethyl)-1-oxa-4,9-diazaspiro[5.5]undecan-3-one hydrochloride], the Ki was under 500 nM. The compound `COCCCC1OC2(CCN(CCc3ccccc3)CC2)CN(c2ccccc2F)C1=O` (centres unmarked) [Example 314, 4-(2-fluorophenyl)-2-(3-methoxypropyl)-9-phenethyl-1-oxa-4,9-diazaspiro[5.5]undecan-3-one hydrochloride] had a Ki of under 500 nM.

The same assay, now with this note: combined class from Ki-σ1 (human σ1 receptor, A1) and Ki-μ (human μ-opioid receptor, A2) radioligand binding.
`COc1ccc(CCN2CCC3(CC2)CN(c2ccccc2)CCO3)cc1` [Example 332, 9-(4-methoxyphenethyl)-4-phenyl-1-oxa-4,9-diazaspiro[5.5]undecane]: the “μ and σ1 dual binding” value was “++”. `O=C1COC2(CCN(Cc3ccccc3)C2)CN1c1ccccc1` (centres unmarked) [Example 7, 2-benzyl-9-phenyl-6-oxa-2,9-diazaspiro[4.5]decan-8-one]: the “μ and σ1 dual binding” value is reported as “++”. Take `COc1ccccc1N1CC2(CCN(Cc3ccccc3)CC2)OCC1=O` [Example 2, 9-benzyl-4-(2-methoxyphenyl)-1-oxa-4,9-diazaspiro[5.5]undecan-3-one]: the “μ and σ1 dual binding” value was “++”.

For `CC1OC2(CCN(CCc3cc(C#N)ccn3)CC2)CN(c2ccccc2)C1=O` (centres unmarked) [Example 41, 2-(2-(2-methyl-3-oxo-4-phenyl-1-oxa-4,9-diazaspiro[5.5]undecan-9-yl)ethyl)isonicotinonitrile], the “μ and σ1 dual binding” value is on record as “++”. On the same count and under the same terms, as for `O=C1N(c2cccnc2C(F)(F)F)CC2(CCN(CCc3cc(F)ccc3F)CC2)OC12CC2` [Example 341, 8-(2,5-difluorophenethyl)-12-(2-(trifluoromethyl)pyridin-3-yl)-4-oxa-8,12-diazadispiro[2.1.5.3]tridecan-13-one], the entry is “++”.

The same assay, now with this note: read-out: μ and σ1 dual binding.
As for `CC1OC2(CCN(CCc3ccc(C(=O)N(C)C)cc3)CC2)CN(c2ccccc2)C1=O` (centres unmarked) [Example 273, N,N-dimethyl-4-(2-(2-methyl-3-oxo-4-phenyl-1-oxa-4,9-diazaspiro[5.5]undecan-9-yl)ethyl)benzamide hydrochloride], the Ki is over 500 nM.

For the compound `Nc1cccc(CCN2CCC3(CC2)CN(Cc2ccccc2)CCO3)c1` [Example 338, 3-(2-(4-benzyl-1-oxa-4,9-diazaspiro[5.5]undecan-9-yl)ethyl)aniline], the Ki is over 500 nM. Same read-out and setting: as for `CC1OC2(CCN(CCc3ccccc3)CC2)CN(c2cccnc2)C1=O` (centres unmarked) [Example 194, 2-methyl-9-phenethyl-4-(pyridin-3-yl)-1-oxa-4,9-diazaspiro[5.5]undecan-3-one hydrochloride], the figure is under 500 nM; as for `O=C1C(CO)OC2(CCN(CCc3ccccc3)CC2)CN1c1ccccc1` (centres unmarked) [Example 283, 2-(hydroxymethyl)-9-phenethyl-4-phenyl-1-oxa-4,9-diazaspiro[5.5]undecan-3-one], under 500 nM.

As to `CC1OC2(CCN(CCn3nccc3NC(=O)OC(C)(C)C)CC2)CN(c2ccccc2)C1=O` (centres unmarked) [Example 116, tert-butyl (1-(2-(2-methyl-3-oxo-4-phenyl-1-oxa-4,9-diazaspiro[5.5]undecan-9-yl)ethyl)-1H-pyrazol-5-yl)carbamate], the Ki was over 500 nM. `CC1OC2(CCN(CCc3ncccn3)CC2)CN(c2ccccc2)C1=O` (centres unmarked) [Example 26, 2-methyl-4-phenyl-9-(2-(pyrimidin-2-yl)ethyl)-1-oxa-4,9-diazaspiro[5.5]undecan-3-one hydrochloride]: the Ki was over 500 nM.

In the case of `COc1ccccc1CCN1CCC2(CC1)CN(Cc1ccccn1)CCO2` [Example 326, 9-(2-methoxyphenethyl)-4-(pyridin-2-ylmethyl)-1-oxa-4,9-diazaspiro[5.5]undecane], the Ki was under 500 nM.

Consider `O=C1N(c2ccccc2)CC2(CCN(CCc3ccccn3)CC2)OC12CC2` [Example 90, 12-phenyl-8-[2-(pyridin-2-yl)ethyl]-4-oxa-8,12-diazaspiro[2.1.5.3]tridecan-13-one], for which the Ki was under 100 nM. In the case of `O=C1COC2(CCN(CC(O)c3ccccc3)CC2)CN1Cc1ccc(C(F)(F)F)cn1` (centres unmarked) [Example 278, 9-(2-hydroxy-2-phenylethyl)-4-((5-(trifluoromethyl)pyridin-2-yl)methyl)-1-oxa-4,9-diazaspiro[5.5]undecan-3-one], the Ki is under 500 nM. With `CNC(=O)c1ccc(CCN2CCC3(CC2)CN(c2ccccc2)C(=O)C(C)O3)cc1` (centres unmarked) [Example 274, N-methyl-4-(2-(2-methyl-3-oxo-4-phenyl-1-oxa-4,9-diazaspiro[5.5]undecan-9-yl)ethyl)benzamide hydrochloride], the Ki was under 500 nM. On the same count and under the same terms, as for `CC1OC2(CCN(CCc3ccccc3)CC2)CN(c2ccccc2)C1=O` (centres unmarked) [Example 9, 2-methyl-9-phenethyl-4-phenyl-1-oxa-4,9-diazaspiro[5.5]undecan-3-one], the figure is under 100 nM; as for `CC1OC2(CCN(CCc3ccccc3)CC2)CN(c2cncc(F)c2)C1=O` (centres unmarked) [Example 216, 4-(5-fluoropyridin-3-yl)-2-methyl-9-phenethyl-1-oxa-4,9-diazaspiro[5.5]undecan-3-one hydrochloride], under 500 nM; as for `CC1OC2(CCN(CCc3ccc(C(F)(F)F)nc3)CC2)CN(c2ccccc2F)C1=O` (centres unmarked) [Example 91, 4-(2-fluorophenyl)-2-methyl-9-(2-(6-(trifluoromethyl)pyridin-3-yl)ethyl)-1-oxa-4,9-diazaspiro[5.5]undecan-3-one dihydrochloride], under 500 nM. Still for that read-out and setting: as for `COc1ccc(CN2CC3(CCN(CCc4ccccc4)CC3)OC3(CC3)C2=O)cc1` [Example 109, 12-(4-methoxybenzyl)-8-phenethyl-4-oxa-8,12-diazadispiro[2.1.5.3]tridecan-13-one hydrochloride], the figure is under 100 nM. On to `O=C1COC2(CCN(CCc3ccccc3)CC2)CN1c1ccccc1F` [Example 189, 4-(2-fluorophenyl)-9-phenethyl-1-oxa-4,9-diazaspiro[5.5]undecan-3-one], for which the Ki is under 500 nM. Same read-out and setting: as for `CC1OC2(CCN(CCc3ccccn3)CC2)CN(c2ccccc2)C1=O` (centres unmarked) [Example 58, 2-methyl-4-phenyl-9-(2-(pyridin-2-yl)ethyl)-1-oxa-4,9-diazaspiro[5.5]undecan-3-one], the figure is under 100 nM; as for `O=C1COC2(CCN(CCc3ccccc3)CC2)CN1Cc1ccccc1` [Example 153, 4-benzyl-9-phenethyl-1-oxa-4,9-diazaspiro[5.5]undecan-3-one hydrochloride], under 100 nM. In the case of `CC(C)=C1OC2(CCN(CCc3ccccn3)CC2)CN(c2ccccc2F)C1=O` [Example 139], the Ki is over 500 nM. Take `O=C1COC2(CCN(CCc3ccccc3)CC2)CN1Cc1ccc(Cl)cn1` [Example 105, 4-((5-chloropyridin-2-yl)methyl)-9-phenethyl-1-oxa-4,9-diazaspiro[5.5]undecan-3-one hydrochloride]: the Ki was under 100 nM.
